PMC5562236, “Properties of Two Novel Esterases Identified from Culture Supernatant of Penicillium purpurogenum Grown on Sugar Beet Pulp” (Insights in enzyme research, 2016)

System: T1, FAET
T1 construct: full-length cDNA (introns removed) with own signal peptide in pPICZB, stop codon kept, no tag seen; secreted by Pichia pastoris GS115, culture supernatant, no purification described
Test: pNP release at […] nm, microplate, recombinant P. pastoris culture supernatant
Format: biochemical, Talaromyces purpureogenus
Details: 100 mM sodium phosphate pH 5.8, 28 °C (general pNP assay)

Km	Compound
2300 µM	CC(=O)Oc1ccc([N+](=O)[O-])cc1 [pNP-acetate]
1400 µM	COc1cc(/C=C/C(=O)Oc2ccc([N+](=O)[O-])cc2)ccc1O [pNP-ferulate]
